Assays:
[1] = biological target: T1, TARP γ8 dependent GluA1 flop receptors (Homo sapiens, UniProt P42261+Q8WXS5); test: FLIPR antagonist functional assay, GluA1 flop co-expressed with TARP γ-8 in CHO-S cells; format: cell-based; details: glutamate 45 μM plus CTZ 20 μM, average±SEM, n=9
T1 construct: expressed in transfected cells; host or cells: CHO-S (Invitrogen), transient transfection
Description: (§1) FLIPR Antagonist Functional Assay
(§2) Briefly, CHO-S (Invitrogen) cells are grown in suspension in 50/50 custom media to a density of 1×10^7 cells/ml. […]

[2] = biological target: T2, AMPA GluA1 flip isoform devoid of TARP (Homo sapiens, UniProt P42261); test: FLIPR antagonist functional assay, GluA1 flip expressed in CHO-S cells without TARP; format: cell-based; details: no TARP, did not inhibit, assay limit 9260 nM
T2 construct: expressed in transfected cells; host or cells: CHO-S (Invitrogen), transient transfection
Description: as §1, §2

[3] = biological target: T3, TARP γ2 dependent GluA1 flop receptors (Homo sapiens, UniProt P42261+Q9Y698); test: FLIPR antagonist functional assay, GluA1 flop co-expressed with TARP γ-2 in CHO-S cells; format: cell-based; details: did not inhibit, assay limit 9260 nM
T3 construct: expressed in transfected cells; host or cells: CHO-S (Invitrogen), transient transfection
Description: as §1, §2

[4] = tested on: PTZ induced seizures; test: Rat pentylenetetrazole (PTZ)-induced seizure model; format: in vivo
Source text: Rat Pentylenetetrazole (PTZ)-Induced Seizure Model:
Male Sprague Dawley rats (from Harlan Sprague Dawley. Indianapolis, Ind.), weighing 90-110 grams at time of test, are housed 5 per cage with ad libitum food and water in a large colony room with a standard light cycle (lights on 6 am, lights off 6 pm). Animals are maintained in the colony room for at least 3 days before testing Animals are moved to a quiet room 1 hr. prior to the start of the test. Animals are used only once.
Animals are removed and dosed with test compound or vehicle (5% DMSO, 10% acacia and 0.05% Dow Corning® 1510-US antifoam), p.o., 10 mL/Kg, and returned to their home cage. Twenty five min. after dosing, animals are placed onto a screen and the screen is inverted 180 degrees to test for motor impairment. The animals are scored 60 sec. after inversion as follows: 0 if the animal climbs over the screen; 1 if the animal is hanging onto the bottom of the screen; 2 if the animal has fallen off the screen. After completing the screen test, animals are dosed S.C. with 35 mg/kg PTZ in saline in a volume of 1 ml/kg. The animals are then placed in an observation cage and observed for 30 min. post PTZ. […] Lethality during the observation period is also recorded. Animals are scored according to the presence of a specific seizure type at any time during the observation period.

[5] = tested on: motor impairment; test: Inverted screen test for motor impairment (within rat PTZ model); format: in vivo; details: rats, 1-10 mg/Kg p.o., 25 min after dosing
Description: Animals are removed and dosed with test compound or vehicle (5% DMSO, 10% acacia and 0.05% Dow Corning® 1510-US antifoam), p.o., 10 mL/Kg, and returned to their home cage. Twenty five min. after dosing, animals are placed onto a screen and the screen is inverted 180 degrees to test for motor impairment. The animals are scored 60 sec. after inversion as follows: 0 if the animal climbs over the screen; 1 if the animal is hanging onto the bottom of the screen; 2 if the animal has fallen off the screen. After completing the screen test, animals are dosed S.C. with 35 mg/kg PTZ in saline in a volume of 1 ml/kg. The animals are then placed in an observation cage and observed for 30 min. post PTZ. […] Tonic seizure is defined as loss of righting with tonic hindlimb extension. Lethality during the observation period is also recorded. Animals are scored according to the presence of a specific seizure type at any time during the observation period.

[6] = tested on: formalin induced pain; test: Manual formalin induced pain model; format: in vivo, mice; details: for % reduction in total time licking: mice
Description: Manual Formalin Induced Pain Model
The manual formalin induced pain model is well known for screening compounds for analgesic properties (Mogil J. S. et al., Heritability of nociception I: Responses of 11 inbred mouse strains on 12 measures of nociception. Pain 80 (1999) 67-82). The assay is performed in Plexiglas® boxes approx. 10 cm×10 cm×10 cm in size. A minor placed at the back of the cage allows the unhindered observation of the formalin injected paw. Non-fasted male mice (Harlan (HSD) CD1-Icr) are placed individually in the cubicles at least 60 min. prior to the experiment. All testing is conducted between 08:00 and 16:00 hr. and the testing room temperature is maintained at 21-23° C. Multiple doses of test compound (3, 10 and 30 mg/kg), vehicle (5% DMSO in 10% Acacia, 0.05% antifoam), and a positive control (tramadol 80 mg/kg in 1% HEC, 0.25% Tween 80, 0.05% antifoam) are peripherally administered (p.o.) at varying times before the formalin challenge. Formalin (20 μL of a 5% solution in 0.9% saline) is injected subcutaneously into the plantar surface of the left hind paw with a 27 gauge needle. Observation starts immediately after the formalin injection. Formalin induced pain is quantified by recording the number of seconds each licking event lasts in 5 min. intervals. The pain scoring is measured for 60 min. after the formalin injection. Two phases of pain behavior are observed as previously described (Wheeler-Aceto, H., Porreca, F. and Cowan, A., The rat paw formalin test: comparison of noxious agents, Pain 40 (1990) 229-238.). The early phase starts immediately after the formalin injection and lasts approximately 5 min., followed by the late phase that starts between minutes 10-15 with a maximum response typically observed around 25-40 min after the formalin injection. After the 60 min observation period, animals are sacrificed with CO2 followed by cervical dislocation. Of the different scoring parameters reported for the formalin test, the total time spent licking and biting the injected paw is considered to be most relevant. (Abbott et al., The formalin test: scoring properties of the first and second phases of the pain response in rats, Pain 60 (1995) 91-102; Coderre et al., The formalin test: a validation of the weighted-scores method of the behavioral pain rating, Pain 54 (1993) 43-50).) The early phase score is the sum of time spent licking (seconds) from time 0 to 5 min. The late phase score is obtained by adding the total number of seconds spent licking from minute 15 to min. 55 of the observation period. Data are presented as means with standard errors of means (±SEM). Data are evaluated by one-way analysis of variance (ANOVA) and the appropriate contrasts analyzed by Dunnett “t” test for two sided comparisons. […]

T1 sequence (P42261 19-906): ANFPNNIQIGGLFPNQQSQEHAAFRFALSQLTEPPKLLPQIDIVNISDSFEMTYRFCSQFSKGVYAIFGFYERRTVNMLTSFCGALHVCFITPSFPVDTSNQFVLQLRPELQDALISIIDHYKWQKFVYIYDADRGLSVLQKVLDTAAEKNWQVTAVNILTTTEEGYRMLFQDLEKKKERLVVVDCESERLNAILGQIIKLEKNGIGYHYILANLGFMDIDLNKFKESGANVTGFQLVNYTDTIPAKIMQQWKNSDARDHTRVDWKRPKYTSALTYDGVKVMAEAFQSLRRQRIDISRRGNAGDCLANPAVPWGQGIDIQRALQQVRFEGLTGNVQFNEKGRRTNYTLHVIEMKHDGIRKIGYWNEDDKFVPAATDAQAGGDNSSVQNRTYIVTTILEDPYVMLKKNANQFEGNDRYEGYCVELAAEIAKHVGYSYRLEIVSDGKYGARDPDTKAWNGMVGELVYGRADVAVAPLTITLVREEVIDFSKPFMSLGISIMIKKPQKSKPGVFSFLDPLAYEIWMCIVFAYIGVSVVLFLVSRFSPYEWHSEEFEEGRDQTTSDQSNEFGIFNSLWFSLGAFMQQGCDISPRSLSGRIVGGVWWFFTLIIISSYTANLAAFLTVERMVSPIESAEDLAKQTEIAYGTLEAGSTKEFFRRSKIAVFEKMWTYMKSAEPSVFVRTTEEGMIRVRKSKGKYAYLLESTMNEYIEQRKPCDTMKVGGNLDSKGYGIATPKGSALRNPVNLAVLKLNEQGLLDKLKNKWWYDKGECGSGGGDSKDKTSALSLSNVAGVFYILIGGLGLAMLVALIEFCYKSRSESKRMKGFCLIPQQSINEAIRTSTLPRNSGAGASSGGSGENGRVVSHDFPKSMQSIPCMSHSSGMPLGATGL
T1 sequence (Q8WXS5 whole entry): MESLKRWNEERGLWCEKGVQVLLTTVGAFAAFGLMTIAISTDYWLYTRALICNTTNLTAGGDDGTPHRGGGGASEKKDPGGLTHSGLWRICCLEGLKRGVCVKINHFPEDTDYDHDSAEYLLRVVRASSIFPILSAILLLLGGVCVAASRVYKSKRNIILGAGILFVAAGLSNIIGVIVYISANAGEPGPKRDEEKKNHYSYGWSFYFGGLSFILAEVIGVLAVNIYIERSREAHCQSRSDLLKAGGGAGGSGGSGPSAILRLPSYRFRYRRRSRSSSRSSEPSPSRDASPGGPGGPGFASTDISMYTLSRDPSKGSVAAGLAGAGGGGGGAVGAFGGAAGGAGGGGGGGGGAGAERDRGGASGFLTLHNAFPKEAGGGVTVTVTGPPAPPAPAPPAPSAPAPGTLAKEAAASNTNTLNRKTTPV
T2 sequence (P42261 19-906 isoform P42261-2 limits assumed): as the sequence (P42261 19-906) above, with N740G, N750S, L754V, N760S, G772K, G773D, G774S, D775G counted along it
T3 sequence (P42261 19-906): as the sequence (P42261 19-906) above
T3 sequence (Q9Y698 whole entry): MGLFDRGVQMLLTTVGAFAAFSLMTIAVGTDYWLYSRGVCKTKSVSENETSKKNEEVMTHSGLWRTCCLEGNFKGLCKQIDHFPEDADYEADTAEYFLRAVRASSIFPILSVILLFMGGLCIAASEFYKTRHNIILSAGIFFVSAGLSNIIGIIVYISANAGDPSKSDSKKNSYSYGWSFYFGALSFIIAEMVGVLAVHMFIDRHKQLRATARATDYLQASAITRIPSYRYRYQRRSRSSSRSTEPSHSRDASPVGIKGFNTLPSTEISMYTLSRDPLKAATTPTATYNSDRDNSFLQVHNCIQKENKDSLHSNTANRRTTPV

`C[C@@H](c1ccc2[nH]c(=O)sc2c1)c1ccn(-c2ccc(OCCO)cn2)n1` (single isomer, unassigned) [Example 2] was tested. Which IC50 [1] did it give?
Its IC50 is 0.0745 ± 0.0178 µM.

And the “inhibition of glutamate plus CTZ activation” value [1]?
The value was “about 85.6±0.7%”.

And the IC50 [2]?
Its IC50 is > 9.26 µM.

What about the IC50 [3] of the same molecule?
Its IC50 is > 9.26 µM.

And the ED50 ([4]; Rattus norvegicus, male Sprague Dawley rats, p.o., dose range 1-10 mg/Kg, PTZ 35 mg/kg S.C., read-out: estimated ED50, protection against PTZ induced seizures)?
The ED50 was 1.74 mg/kg.

What about the “protection against PTZ induced seizures” value ([4]; rats, 10 mg/Kg p.o.) of the same molecule?
Its value is 100%.

What about the “motor impairment as measured by the inverted screen test” value [5] of the same molecule?
Its value is “without any observed motor impairment”.

What about the ED50 ([6]; Mus musculus, po, male CD1 mice, p.o., derived from dose responses at 3, 10, 30 mg/kg, read-out: ED50, reduction of pain behavior) of the same molecule?
Its ED50 is 2.61 mg/kg.

And the “% reduction in total time licking” value ([6]; 3 mg/kg p.o.)?
Its value is 53.9%.

And the “% reduction in total time licking” value ([6]; 10 mg/kg p.o.)?
The value was 80.4%.

What about the “% reduction in total time licking” value ([6]; 30 mg/kg p.o.) of the same molecule?
Its value is 90.0%.

Source: patent US8765960B2, “6-((S)-1- {1-[5-(2-hydroxy-ethoxy)-pyridin-2-yl]-1H-pyrazol-3-YL}-ethyl)-3H-1,3-benzothiazol-2-one as a tarp-gamma 8 dependent AMPA receptor antagonist” (Eli Lilly and Company, priority 2012, dated 2014)
